Where two headings read alike, the source gives them in different places.
Columns and labels:
Test in all cases: HotSpot kinase profiling
Format in all cases: biochemical
[1] = target: T1, CDK2/cyclin A (Homo sapiens, UniProt P24941)
T1 construct: purchased Reaction Biology Corp
Method: (§1) The binding assay system for profiling kinase activity were based upon HotSpot technology (Reaction Biology Corp.; Malvern, Pa., USA) and utilized radio-isotope-based P81 filtration. […] Substrates for the various kinases tested against Compound 2 (substrate information available on the Reaction Biology Corp. website) were prepared fresh daily in Reaction Buffer. Any required cofactors were then added to the substrate solution. The identification and selection of the appropriate cofactor for each kinase is within the ability of a person skilled in the art. See, for example, Handbook of Assay Development in Drug Discovery, Ed. Lisa K. Minor, 2006: CRC Press, Boca Raton, Fla.; Gao et al., “A broad activity screen in support of a chemogenomic map for kinase signalling research and drug discovery,” Biochem J. 2013, 451(2): 313-28; and Eglen et al., “Drug discovery and the human kinome: Recent trends,” Pharmacology & Therapeutics 2011, 130(2): 144-156. The kinase was then added to the substrate solution and gently mixed. […] This was followed by incubation at room temperature for 2 h. The reaction was terminated and any unreacted phosphate was washed away using 0.1% phosphoric acid prior to detection utilizing a proprietary technology. […] DMSO was used as the negative control.
(§2) Percent inhibition was expressed as an average where the assay was performed more than once, e.g., in duplicate.

[2] = target: T2, CDK2/cyclin A1 (Homo sapiens, UniProt P24941)
T2 construct: purchased Reaction Biology Corp
Method: as §1, §2

[3] = target: T3, FGFR2 (Homo sapiens, UniProt P21802)
T3 construct: purchased Reaction Biology Corp
Method: as §1, §2

[4] = target: T4, HIPK3 (Homo sapiens, UniProt Q9H422)
T4 construct: purchased Reaction Biology Corp
Method: as §1, §2

[5] = target: T5, RIPK5 (Homo sapiens, UniProt Q6XUX3)
T5 construct: purchased Reaction Biology Corp
T5 sequence (Q6XUX3 1-929): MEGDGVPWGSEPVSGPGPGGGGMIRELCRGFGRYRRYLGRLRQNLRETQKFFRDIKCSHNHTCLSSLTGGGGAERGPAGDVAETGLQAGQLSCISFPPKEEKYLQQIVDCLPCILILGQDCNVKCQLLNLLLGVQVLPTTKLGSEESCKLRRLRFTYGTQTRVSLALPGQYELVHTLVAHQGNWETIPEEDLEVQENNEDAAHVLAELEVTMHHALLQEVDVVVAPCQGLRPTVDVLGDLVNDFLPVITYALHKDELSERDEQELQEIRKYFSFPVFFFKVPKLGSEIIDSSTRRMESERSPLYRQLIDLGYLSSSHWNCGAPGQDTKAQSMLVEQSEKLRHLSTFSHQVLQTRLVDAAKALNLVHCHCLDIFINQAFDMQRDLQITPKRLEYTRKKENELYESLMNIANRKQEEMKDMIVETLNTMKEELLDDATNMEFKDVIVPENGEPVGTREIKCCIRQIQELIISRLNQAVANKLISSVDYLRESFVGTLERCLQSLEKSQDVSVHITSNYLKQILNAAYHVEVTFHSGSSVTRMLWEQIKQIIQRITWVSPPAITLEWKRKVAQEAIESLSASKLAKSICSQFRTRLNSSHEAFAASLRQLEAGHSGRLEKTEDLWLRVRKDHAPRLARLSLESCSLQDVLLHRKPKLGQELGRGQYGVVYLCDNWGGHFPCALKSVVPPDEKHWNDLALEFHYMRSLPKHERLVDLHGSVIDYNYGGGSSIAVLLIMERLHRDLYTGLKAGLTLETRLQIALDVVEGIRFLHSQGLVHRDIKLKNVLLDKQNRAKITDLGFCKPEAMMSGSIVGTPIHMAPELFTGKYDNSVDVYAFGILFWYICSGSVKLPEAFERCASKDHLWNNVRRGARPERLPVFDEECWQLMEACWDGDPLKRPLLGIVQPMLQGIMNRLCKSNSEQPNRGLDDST
Method: as §1, §2

[6] = target: T6, STK32B/YANK2 (Homo sapiens, UniProt Q9NY57)
T6 construct: purchased Reaction Biology Corp
Method: as §1, §2

[7] = target: T7, TNIK (Homo sapiens, UniProt Q9UKE5)
T7 construct: purchased Reaction Biology Corp
Method: as §1, §2

[8] = target: T8, ZAP70 (Homo sapiens, UniProt P43403)
T8 construct: purchased Reaction Biology Corp
T8 sequence (P43403 1-619): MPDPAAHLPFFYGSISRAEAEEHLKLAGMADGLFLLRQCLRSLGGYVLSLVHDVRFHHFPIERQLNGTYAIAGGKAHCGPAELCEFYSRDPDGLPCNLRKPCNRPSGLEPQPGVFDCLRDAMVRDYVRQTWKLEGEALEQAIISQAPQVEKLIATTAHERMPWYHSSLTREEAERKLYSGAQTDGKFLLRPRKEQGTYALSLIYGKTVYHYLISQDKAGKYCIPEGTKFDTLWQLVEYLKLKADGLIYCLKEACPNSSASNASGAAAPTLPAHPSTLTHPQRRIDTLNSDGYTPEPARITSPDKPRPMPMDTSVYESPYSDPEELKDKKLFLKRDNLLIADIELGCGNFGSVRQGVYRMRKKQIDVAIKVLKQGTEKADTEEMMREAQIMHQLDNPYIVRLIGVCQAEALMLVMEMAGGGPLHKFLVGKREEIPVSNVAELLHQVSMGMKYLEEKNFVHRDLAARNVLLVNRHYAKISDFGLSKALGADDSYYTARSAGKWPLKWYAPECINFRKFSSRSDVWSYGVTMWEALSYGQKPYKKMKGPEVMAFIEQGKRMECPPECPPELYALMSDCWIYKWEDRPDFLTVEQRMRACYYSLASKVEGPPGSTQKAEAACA
Method: as §1, §2

[9] = read-out: % Enzyme Activity (relative to DMSO controls) Run 1
[10] = read-out: % Enzyme Activity (relative to DMSO controls) Run 2

T3 sequence (P21802 22-821): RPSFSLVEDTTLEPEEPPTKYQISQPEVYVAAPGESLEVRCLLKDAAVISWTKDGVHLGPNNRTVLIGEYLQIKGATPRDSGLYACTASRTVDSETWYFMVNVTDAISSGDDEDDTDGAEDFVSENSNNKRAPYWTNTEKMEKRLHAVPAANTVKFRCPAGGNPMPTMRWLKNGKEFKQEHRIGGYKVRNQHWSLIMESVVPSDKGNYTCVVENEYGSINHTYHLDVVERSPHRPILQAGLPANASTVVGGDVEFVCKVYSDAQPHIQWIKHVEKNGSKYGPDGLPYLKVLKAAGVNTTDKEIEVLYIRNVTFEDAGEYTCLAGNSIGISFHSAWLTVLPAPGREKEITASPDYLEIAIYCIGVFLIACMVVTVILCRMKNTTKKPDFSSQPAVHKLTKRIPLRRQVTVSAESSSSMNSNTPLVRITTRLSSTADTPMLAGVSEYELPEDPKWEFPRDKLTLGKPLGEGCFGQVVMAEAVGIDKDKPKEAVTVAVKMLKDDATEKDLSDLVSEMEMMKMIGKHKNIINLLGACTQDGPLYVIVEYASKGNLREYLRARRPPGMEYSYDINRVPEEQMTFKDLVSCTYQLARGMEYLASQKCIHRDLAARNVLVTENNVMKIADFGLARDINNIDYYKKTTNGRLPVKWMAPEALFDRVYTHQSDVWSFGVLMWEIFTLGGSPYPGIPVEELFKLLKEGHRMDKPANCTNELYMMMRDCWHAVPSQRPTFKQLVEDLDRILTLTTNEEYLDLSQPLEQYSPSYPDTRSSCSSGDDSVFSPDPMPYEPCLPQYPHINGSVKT
T4 sequence (Q9H422 whole entry): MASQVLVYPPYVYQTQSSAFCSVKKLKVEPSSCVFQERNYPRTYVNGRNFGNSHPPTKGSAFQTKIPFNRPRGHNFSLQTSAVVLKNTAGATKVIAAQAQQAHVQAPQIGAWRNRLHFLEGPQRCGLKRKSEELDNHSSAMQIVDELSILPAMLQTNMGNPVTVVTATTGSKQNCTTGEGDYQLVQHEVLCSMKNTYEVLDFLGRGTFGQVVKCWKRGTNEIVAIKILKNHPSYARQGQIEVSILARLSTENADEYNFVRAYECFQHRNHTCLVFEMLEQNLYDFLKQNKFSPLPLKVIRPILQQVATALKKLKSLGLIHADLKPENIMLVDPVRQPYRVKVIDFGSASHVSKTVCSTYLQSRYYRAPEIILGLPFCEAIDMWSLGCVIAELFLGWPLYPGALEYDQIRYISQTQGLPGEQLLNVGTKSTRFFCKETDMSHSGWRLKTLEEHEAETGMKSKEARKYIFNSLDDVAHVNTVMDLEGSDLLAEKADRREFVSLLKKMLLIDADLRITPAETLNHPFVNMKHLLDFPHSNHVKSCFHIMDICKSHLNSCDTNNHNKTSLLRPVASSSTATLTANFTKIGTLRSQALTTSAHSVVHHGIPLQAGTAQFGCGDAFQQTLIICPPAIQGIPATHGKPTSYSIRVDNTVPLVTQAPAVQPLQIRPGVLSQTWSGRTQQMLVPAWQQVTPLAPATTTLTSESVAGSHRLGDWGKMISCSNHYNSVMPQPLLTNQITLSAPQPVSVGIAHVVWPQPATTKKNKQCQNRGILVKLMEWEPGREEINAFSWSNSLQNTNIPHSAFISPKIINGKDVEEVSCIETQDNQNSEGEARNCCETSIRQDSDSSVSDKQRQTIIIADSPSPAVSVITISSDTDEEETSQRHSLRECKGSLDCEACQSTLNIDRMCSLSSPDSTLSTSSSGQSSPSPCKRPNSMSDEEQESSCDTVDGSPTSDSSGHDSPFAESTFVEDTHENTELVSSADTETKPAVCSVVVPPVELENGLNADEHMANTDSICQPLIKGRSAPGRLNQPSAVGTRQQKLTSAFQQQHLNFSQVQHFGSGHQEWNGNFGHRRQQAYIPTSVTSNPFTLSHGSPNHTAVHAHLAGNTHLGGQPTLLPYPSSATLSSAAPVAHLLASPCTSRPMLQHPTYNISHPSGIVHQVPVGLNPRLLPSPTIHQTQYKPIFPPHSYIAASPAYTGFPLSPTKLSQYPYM
T7 sequence (Q9UKE5 whole entry): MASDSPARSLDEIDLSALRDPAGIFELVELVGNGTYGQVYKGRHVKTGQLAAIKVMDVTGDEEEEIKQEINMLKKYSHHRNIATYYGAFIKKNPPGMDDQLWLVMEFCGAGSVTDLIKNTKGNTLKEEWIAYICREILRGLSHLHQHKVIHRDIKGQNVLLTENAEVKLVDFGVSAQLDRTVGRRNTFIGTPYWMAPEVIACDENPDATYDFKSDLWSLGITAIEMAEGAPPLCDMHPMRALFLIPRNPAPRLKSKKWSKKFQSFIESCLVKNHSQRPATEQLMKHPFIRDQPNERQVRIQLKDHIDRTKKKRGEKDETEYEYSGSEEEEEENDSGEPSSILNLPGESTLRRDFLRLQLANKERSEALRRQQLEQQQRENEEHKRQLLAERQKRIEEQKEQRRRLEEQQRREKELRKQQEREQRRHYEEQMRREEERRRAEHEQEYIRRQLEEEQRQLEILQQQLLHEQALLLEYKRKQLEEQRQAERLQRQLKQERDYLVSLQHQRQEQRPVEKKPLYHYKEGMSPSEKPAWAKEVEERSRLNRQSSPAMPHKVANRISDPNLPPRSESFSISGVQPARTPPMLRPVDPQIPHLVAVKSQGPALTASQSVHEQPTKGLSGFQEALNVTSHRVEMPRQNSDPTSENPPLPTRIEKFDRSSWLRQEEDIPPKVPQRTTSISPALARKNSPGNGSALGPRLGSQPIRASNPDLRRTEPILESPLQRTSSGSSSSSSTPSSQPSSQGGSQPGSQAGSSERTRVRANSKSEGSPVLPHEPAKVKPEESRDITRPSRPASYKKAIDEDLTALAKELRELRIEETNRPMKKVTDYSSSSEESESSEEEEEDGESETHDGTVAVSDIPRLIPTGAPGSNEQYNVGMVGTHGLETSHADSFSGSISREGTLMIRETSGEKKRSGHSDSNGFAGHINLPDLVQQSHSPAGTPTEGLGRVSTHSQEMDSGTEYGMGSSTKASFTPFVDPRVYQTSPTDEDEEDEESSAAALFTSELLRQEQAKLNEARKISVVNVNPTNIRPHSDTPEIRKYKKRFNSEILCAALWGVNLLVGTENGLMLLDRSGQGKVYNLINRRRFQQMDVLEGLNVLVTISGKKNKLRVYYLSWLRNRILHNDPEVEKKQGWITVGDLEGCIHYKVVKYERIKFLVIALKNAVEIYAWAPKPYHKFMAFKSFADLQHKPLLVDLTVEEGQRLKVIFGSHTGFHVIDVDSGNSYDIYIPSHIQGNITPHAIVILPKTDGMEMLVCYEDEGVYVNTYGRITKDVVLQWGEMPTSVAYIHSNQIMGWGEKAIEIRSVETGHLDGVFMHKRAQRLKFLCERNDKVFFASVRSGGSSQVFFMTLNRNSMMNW
T6 sequence (Q9NY57 whole entry): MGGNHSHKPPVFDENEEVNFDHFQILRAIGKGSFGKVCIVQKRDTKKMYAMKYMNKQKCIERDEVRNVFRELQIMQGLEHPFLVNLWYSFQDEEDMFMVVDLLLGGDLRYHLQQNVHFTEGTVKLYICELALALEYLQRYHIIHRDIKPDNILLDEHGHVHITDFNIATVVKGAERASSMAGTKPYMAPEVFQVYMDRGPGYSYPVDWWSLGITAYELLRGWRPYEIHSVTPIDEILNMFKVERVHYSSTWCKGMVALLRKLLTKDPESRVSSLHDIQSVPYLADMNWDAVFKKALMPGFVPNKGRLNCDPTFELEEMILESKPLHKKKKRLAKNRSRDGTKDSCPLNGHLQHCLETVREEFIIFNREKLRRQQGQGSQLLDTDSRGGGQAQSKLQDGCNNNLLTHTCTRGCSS

C=CC(=O)Nc1cccc(Nc2nc(Nc3ccc(OCCOC)c(F)c3)ncc2F)c1 [Compound 2]
inhibition at 3 µM [1]: 13.7% | remaining activity at 3 µM [1, 9]: 85.8% | remaining activity at 3 µM [1, 10]: 86.9% | inhibition at 3 µM [2]: 22% | remaining activity at 3 µM [2, 9]: 78.2% | remaining activity at 3 µM [2, 10]: 77.7% | inhibition at 3 µM [3]: 63.4% | remaining activity at 3 µM [3, 9]: 37.3% | remaining activity at 3 µM [3, 10]: 36% | inhibition at 3 µM [4]: -15.1% | remaining activity at 3 µM [4, 9]: 112% | remaining activity at 3 µM [4, 10]: 118% | inhibition at 3 µM [5]: 2.32% | remaining activity at 3 µM [5, 9]: 96.1% | remaining activity at 3 µM [5, 10]: 99.2% | inhibition at 3 µM [6]: 5.3% | remaining activity at 3 µM [6, 9]: 95.8% | remaining activity at 3 µM [6, 10]: 93.6% | inhibition at 3 µM [7]: 32.7% | remaining activity at 3 µM [7, 9]: 66.8% | remaining activity at 3 µM [7, 10]: 67.8% | inhibition at 3 µM [8]: -9.21% | remaining activity at 3 µM [8, 9]: 110% | remaining activity at 3 µM [8, 10]: 108%
